According to article PMC8197369, “Scale-Up Preparation of Crocins I and II from Gardenia jasminoides by a Two-Step Chromatographic Approach and Their Inhibitory Activity Against ATP Citrate Lyase” (Molecules, 2021):

Target: T1, ATP citrate lyase (ACLY) (Homo sapiens, UniProt P53396)
T1 construct: ACLY (His)
T1 sequence (P53396 1-1101): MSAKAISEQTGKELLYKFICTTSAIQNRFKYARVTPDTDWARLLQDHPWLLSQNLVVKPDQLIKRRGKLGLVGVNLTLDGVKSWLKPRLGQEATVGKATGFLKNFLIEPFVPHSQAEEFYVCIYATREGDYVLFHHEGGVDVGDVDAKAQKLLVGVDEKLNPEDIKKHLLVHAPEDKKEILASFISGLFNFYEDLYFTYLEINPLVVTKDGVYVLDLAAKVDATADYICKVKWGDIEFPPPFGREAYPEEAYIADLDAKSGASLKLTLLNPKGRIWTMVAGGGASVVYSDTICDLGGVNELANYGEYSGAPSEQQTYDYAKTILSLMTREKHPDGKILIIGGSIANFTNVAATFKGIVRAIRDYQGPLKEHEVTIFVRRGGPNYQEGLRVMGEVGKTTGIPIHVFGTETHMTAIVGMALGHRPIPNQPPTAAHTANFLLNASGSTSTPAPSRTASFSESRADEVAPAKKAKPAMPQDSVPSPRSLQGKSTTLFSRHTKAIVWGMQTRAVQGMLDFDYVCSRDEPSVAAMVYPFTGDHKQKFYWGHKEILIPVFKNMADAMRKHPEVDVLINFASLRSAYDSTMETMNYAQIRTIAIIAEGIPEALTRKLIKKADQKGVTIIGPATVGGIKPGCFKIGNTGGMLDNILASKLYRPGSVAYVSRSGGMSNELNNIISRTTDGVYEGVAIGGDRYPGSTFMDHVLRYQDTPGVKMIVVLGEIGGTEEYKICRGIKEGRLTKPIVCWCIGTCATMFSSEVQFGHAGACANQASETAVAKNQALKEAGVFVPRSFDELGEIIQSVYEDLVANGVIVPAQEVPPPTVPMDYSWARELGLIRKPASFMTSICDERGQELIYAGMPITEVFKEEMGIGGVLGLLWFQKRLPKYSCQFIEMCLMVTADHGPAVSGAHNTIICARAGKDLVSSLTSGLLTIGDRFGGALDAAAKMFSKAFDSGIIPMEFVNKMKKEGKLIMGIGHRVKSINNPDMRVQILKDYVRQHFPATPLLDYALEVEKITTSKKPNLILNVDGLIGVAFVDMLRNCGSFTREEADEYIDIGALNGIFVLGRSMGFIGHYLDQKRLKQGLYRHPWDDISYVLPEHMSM
Assay: ADP-Glo ADP-coupled enzymatic assay
Type: biochemical

CC(/C=C/C=C(\C)C(=O)O[C@@H]1O[C@H](CO[C@@H]2O[C@H](CO)[C@@H](O)[C@H](O)[C@H]2O)[C@@H](O)[C@H](O)[C@H]1O)=C\C=C\C=C(C)\C=C\C=C(/C)C(=O)O[C@@H]1O[C@H](CO[C@@H]2O[C@H](CO)[C@@H](O)[C@H](O)[C@H]2O)[C@@H](O)[C@H](O)[C@H]1O [compound 1, crocin I]
IC50: 36.3 ± 6.24 µM

CC(/C=C/C=C(\C)C(=O)O[C@@H]1O[C@H](CO)[C@@H](O)[C@H](O)[C@H]1O)=C\C=C\C=C(C)\C=C\C=C(/C)C(=O)O[C@@H]1O[C@H](CO[C@@H]2O[C@H](CO)[C@@H](O)[C@H](O)[C@H]2O)[C@@H](O)[C@H](O)[C@H]1O [compound 2, crocin II]
IC50: 29.7 ± 7.41 µM
